Measurements taken from PubChem BioAssay AID1919010 (Molecular Pharmacology Branch, DTP, NCI, 2023).

Test system: Hs578T complex spheroid growth, percent test/control
Experiment: Anticancer human tumor Hs578T cell line growth inhibition [AhR];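 also: luminescent viability signal as a proxy for spheroid growth; spheroids exposed to agents for one week after three days of growth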
Details: for IC50: curve of first compound; for viability, T/C: stronger effect = lower value; active = viability on the fitted dose curve at most 10% of control; inactive = the rest
Procedure, shortened: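 Agents were dosed in half-log steps down from roughly clinical Cmax, or from 10 microM where Cmax was unknown, alone and with AhR antagonists. Read-out: percent test/control growth of tumor spheroids containing HUVEC and MSC stromal cells.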

[1] = second compound 0.1 µM, first compound 0.0316 µM
[2] = second compound 0.1 µM, first compound 0.1 µM
[3] = second compound 0.1 µM, first compound 0.316 µM
[4] = second compound 0.1 µM, first compound 1 µM
[5] = second compound 0.1 µM, first compound 3.16 µM
[6] = second compound 0.1 µM, first compound 10 µM
[7] = second compound 0.316 µM, first compound 0.0316 µM
[8] = second compound 0.316 µM, first compound 0.1 µM
[9] = second compound 0.316 µM, first compound 0.316 µM
[10] = second compound 0.316 µM, first compound 1 µM
[11] = second compound 0.316 µM, first compound 3.16 µM
[12] = second compound 0.316 µM, first compound 10 µM
[13] = second compound 1 µM, first compound 0.0316 µM
[14] = second compound 1 µM, first compound 0.1 µM
[15] = second compound 1 µM, first compound 0.316 µM
[16] = second compound 1 µM, first compound 1 µM
[17] = second compound 1 µM, first compound 3.16 µM
[18] = second compound 1 µM, first compound 10 µM
[19] = second compound 3.16 µM, first compound 0.0316 µM
[20] = second compound 3.16 µM, first compound 0.1 µM
[21] = second compound 3.16 µM, first compound 0.316 µM
[22] = second compound 3.16 µM, first compound 1 µM
[23] = second compound 3.16 µM, first compound 3.16 µM
[24] = second compound 3.16 µM, first compound 10 µM
[25] = second compound 10 µM, first compound 0.0316 µM
[26] = second compound 10 µM, first compound 0.1 µM
[27] = second compound 10 µM, first compound 0.316 µM
[28] = second compound 10 µM, first compound 1 µM
[29] = second compound 10 µM, first compound 3.16 µM
[30] = second compound 10 µM, first compound 10 µM
[31] = second compound 0.1 µM, first compound 0.00949 µM
[32] = second compound 0.1 µM, first compound 0.03 µM
[33] = second compound 0.1 µM, first compound 0.0949 µM
[34] = second compound 0.1 µM, first compound 0.3 µM
[35] = second compound 0.1 µM, first compound 0.949 µM
[36] = second compound 0.1 µM, first compound 3 µM
[37] = second compound 0.316 µM, first compound 0.00949 µM
[38] = second compound 0.316 µM, first compound 0.03 µM
[39] = second compound 0.316 µM, first compound 0.0949 µM
[40] = second compound 0.316 µM, first compound 0.3 µM
[41] = second compound 0.316 µM, first compound 0.949 µM
[42] = second compound 0.316 µM, first compound 3 µM
[43] = second compound 1 µM, first compound 0.00949 µM
[44] = second compound 1 µM, first compound 0.03 µM
[45] = second compound 1 µM, first compound 0.0949 µM
[46] = second compound 1 µM, first compound 0.3 µM
[47] = second compound 1 µM, first compound 0.949 µM
[48] = second compound 1 µM, first compound 3 µM
[49] = second compound 3.16 µM, first compound 0.00949 µM
[50] = second compound 3.16 µM, first compound 0.03 µM
[51] = second compound 3.16 µM, first compound 0.0949 µM
[52] = second compound 3.16 µM, first compound 0.3 µM
[53] = second compound 3.16 µM, first compound 0.949 µM
[54] = second compound 3.16 µM, first compound 3 µM
[55] = second compound 10 µM, first compound 0.00949 µM
[56] = second compound 10 µM, first compound 0.03 µM
[57] = second compound 10 µM, first compound 0.0949 µM
[58] = second compound 10 µM, first compound 0.3 µM
[59] = second compound 10 µM, first compound 0.949 µM
[60] = second compound 10 µM, first compound 3 µM

CC1(C)CCC(CN2CCN(c3ccc(C(=O)NS(=O)(=O)c4ccc(NCC5CCOCC5)c([N+](=O)[O-])c4)c(Oc4cnc5[nH]ccc5c4)c3)CC2)=C(c2ccc(Cl)cc2)C1 + CC(CO)NC(=O)c1cc(-c2ccc(Cl)cc2)nn(-c2cnn(C)c2)c1=O
> 10000 nM: IC50 (second compound 0.1 µM) | IC50 (second compound 0.316 µM) | IC50 (second compound 1 µM) | IC50 (second compound 3.16 µM) | IC50 (second compound 10 µM)
inactive: viability, T/C [1] 109% | viability, T/C [2] 107% | viability, T/C [3] 107% | viability, T/C [4] 101% | viability, T/C [5] 106% | viability, T/C [6] 84.3% | viability, T/C [7] 110% | viability, T/C [8] 99.7% | viability, T/C [9] 110% | viability, T/C [10] 91.2% | viability, T/C [11] 93% | viability, T/C [12] 96.3% | viability, T/C [13] 115% | viability, T/C [14] 122% | viability, T/C [15] 114% | viability, T/C [16] 98.3% | viability, T/C [17] 109% | viability, T/C [18] 80% | viability, T/C [19] 108% | viability, T/C [20] 111% | viability, T/C [21] 110% | viability, T/C [22] 99.7% | viability, T/C [23] 102% | viability, T/C [24] 88.7% | viability, T/C [25] 117% | viability, T/C [26] 96.9% | viability, T/C [27] 79.4% | viability, T/C [28] 86% | viability, T/C [29] 87.1% | viability, T/C [30] 91.8%

CC1COCCN1c1cc(C2(S(C)(=N)=O)CC2)nc(-c2ccnc3[nH]ccc23)n1 (stereo not given) + CC(CO)NC(=O)c1cc(-c2ccc(Cl)cc2)nn(-c2cnn(C)c2)c1=O
> 10000 nM: IC50 (second compound 0.1 µM) | IC50 (second compound 0.316 µM) | IC50 (second compound 1 µM) | IC50 (second compound 3.16 µM) | IC50 (second compound 10 µM)
inactive: viability, T/C [1] 112% | viability, T/C [2] 117% | viability, T/C [3] 108% | viability, T/C [4] 107% | viability, T/C [5] 90.5% | viability, T/C [6] 60.3% | viability, T/C [7] 113% | viability, T/C [8] 122% | viability, T/C [9] 127% | viability, T/C [10] 100% | viability, T/C [11] 85.2% | viability, T/C [12] 61.3% | viability, T/C [13] 111% | viability, T/C [14] 134% | viability, T/C [15] 112% | viability, T/C [16] 111% | viability, T/C [17] 94.7% | viability, T/C [18] 66% | viability, T/C [19] 111% | viability, T/C [20] 114% | viability, T/C [21] 114% | viability, T/C [22] 111% | viability, T/C [23] 91.7% | viability, T/C [24] 59.5% | viability, T/C [25] 105% | viability, T/C [26] 121% | viability, T/C [27] 122% | viability, T/C [28] 116% | viability, T/C [29] 90.9% | viability, T/C [30] 58.8%

CCN(c1cc(-c2ccc(CN3CCOCC3)cc2)cc(C(=O)NCc2c(C)cc(C)[nH]c2=O)c1C)C1CCOCC1 + CC(CO)NC(=O)c1cc(-c2ccc(Cl)cc2)nn(-c2cnn(C)c2)c1=O
inactive: viability, T/C [31] 116% | viability, T/C [32] 112% | viability, T/C [33] 112% | viability, T/C [34] 102% | viability, T/C [35] 104% | viability, T/C [36] 112% | viability, T/C [37] 114% | viability, T/C [38] 112% | viability, T/C [39] 122% | viability, T/C [40] 109% | viability, T/C [41] 114% | viability, T/C [42] 98.4% | viability, T/C [43] 113% | viability, T/C [44] 121% | viability, T/C [45] 120% | viability, T/C [46] 107% | viability, T/C [47] 111% | viability, T/C [48] 113% | viability, T/C [49] 107% | viability, T/C [50] 113% | viability, T/C [51] 115% | viability, T/C [52] 111% | viability, T/C [53] 104% | viability, T/C [54] 106% | viability, T/C [55] 107% | viability, T/C [56] 104% | viability, T/C [57] 107% | viability, T/C [58] 92.3% | viability, T/C [59] 101% | viability, T/C [60] 106%
> 3000 nM: IC50 (second compound 0.1 µM) | IC50 (second compound 0.316 µM) | IC50 (second compound 1 µM) | IC50 (second compound 3.16 µM) | IC50 (second compound 10 µM)

Nc1ncn(C2CC(O)C(CO)S2)c(=O)n1 (stereo not given) + CC(CO)NC(=O)c1cc(-c2ccc(Cl)cc2)nn(-c2cnn(C)c2)c1=O
inactive: viability, T/C (second compound 0.1 µM, first compound 0.000949 µM) 115% | viability, T/C (second compound 0.1 µM, first compound 0.003 µM) 124% | viability, T/C [31] 117% | viability, T/C [32] 119% | viability, T/C [33] 115% | viability, T/C [34] 98.6% | viability, T/C (second compound 0.316 µM, first compound 0.000949 µM) 118% | viability, T/C (second compound 0.316 µM, first compound 0.003 µM) 114% | viability, T/C [37] 128% | viability, T/C [38] 110% | viability, T/C [39] 117% | viability, T/C [40] 108% | viability, T/C (second compound 1 µM, first compound 0.000949 µM) 112% | viability, T/C (second compound 1 µM, first compound 0.003 µM) 110% | viability, T/C [43] 121% | viability, T/C [44] 121% | viability, T/C [45] 122% | viability, T/C [46] 118% | viability, T/C (second compound 3.16 µM, first compound 0.000949 µM) 123% | viability, T/C (second compound 3.16 µM, first compound 0.003 µM) 122% | viability, T/C [49] 116% | viability, T/C [50] 116% | viability, T/C [51] 105% | viability, T/C [52] 112% | viability, T/C (second compound 10 µM, first compound 0.000949 µM) 113% | viability, T/C (second compound 10 µM, first compound 0.003 µM) 104% | viability, T/C [55] 112% | viability, T/C [56] 113% | viability, T/C [57] 110% | viability, T/C [58] 104%
> 300 nM: IC50 (second compound 0.1 µM) | IC50 (second compound 0.316 µM) | IC50 (second compound 1 µM) | IC50 (second compound 3.16 µM) | IC50 (second compound 10 µM)

O=C(C=Cn1cnc(-c2cc(C(F)(F)F)cc(C(F)(F)F)c2)n1)NNc1cnccn1 + CC(CO)NC(=O)c1cc(-c2ccc(Cl)cc2)nn(-c2cnn(C)c2)c1=O
300 nM: IC50 (second compound 10 µM)
314 nM: IC50 (second compound 0.316 µM)
inactive: viability, T/C [31] 102% | viability, T/C [32] 108% | viability, T/C [33] 89.4% | viability, T/C [34] 51.8% | viability, T/C [35] 19.2% | viability, T/C [36] 17.2% | viability, T/C [37] 109% | viability, T/C [38] 103% | viability, T/C [39] 87.7% | viability, T/C [40] 53.3% | viability, T/C [41] 19.6% | viability, T/C [42] 18.4% | viability, T/C [43] 107% | viability, T/C [44] 102% | viability, T/C [45] 94.8% | viability, T/C [46] 55.1% | viability, T/C [47] 20.8% | viability, T/C [48] 18.6% | viability, T/C [49] 108% | viability, T/C [50] 100% | viability, T/C [51] 91.7% | viability, T/C [52] 51.5% | viability, T/C [53] 28.2% | viability, T/C [54] 21.9% | viability, T/C [55] 97% | viability, T/C [56] 102% | viability, T/C [57] 100% | viability, T/C [58] 50% | viability, T/C [59] 22.6% | viability, T/C [60] 24.4%
333 nM: IC50 (second compound 3.16 µM)
352 nM: IC50 (second compound 1 µM)
305 nM: IC50 (second compound 0.1 µM)
